Data from patent publication US20250059264A1, “METHOD OF TREATING STROKE” (AlaMab Therapeutics, Inc., priority 2023, published 2025).

How the values were obtained:
[1] = test system: mouse model of stroke induced by middle cerebral artery occlusion (MCAO); test: Brain water content, time of treatment (Example 2); type: in vivo, ICR mice; details: 48 h after reperfusion
Procedure: (§1) The administration of 10 mg/kg butylphthalide and 50 mg/kg ALMB-0166 was started 30 minutes, 2 hours, or 6 hours after the MCAO procedure of the mice. Ninety-six (96) ICR mice received behavioral training after adaptive feeding period and before the operation to establish stroke models. The behavioral training included beam-walking and rotarod test. The experimental mice were then randomly divided into 8 groups according to the values of the body weight, with 12 mice in each test group as described in Table 1. The mice were fasted overnight before modeling and were anesthetized with isoflurane. Right middle cerebral artery occlusion (MCAO) was induced in mice using the intraluminal filament technique to mimic focal cerebral ischemic stroke. After 1 hr, reperfusion was allowed by removing the occlusion. Administration of each treatment was performed 0.5 hrs, 2 hrs, or 6 hrs after the infarction. The neurological function score was evaluated at 24 hrs and 48 hrs after reperfusion, as was assessed by beam-walking, grip strength, and rotarod tests. At 48 hrs after reperfusion, the whole brain tissue of all rats was harvested to assess the cerebral infarct area by TTC staining, as well as to measure brain volume and brain water content, two indicators of acute cerebral edema.

[2] = test system: mouse model of stroke induced by middle cerebral artery occlusion (MCAO); test: Brain volume, time of treatment (Example 2); type: in vivo, ICR mice; details: 48 h after reperfusion
Procedure: as §1

[3] = test system: rat model of stroke induced by middle cerebral artery occlusion (MCAO); test: Beam-walking test (Example 3); type: in vivo, SD rats; details: 10 mg/kg (table label) i.v. Bid from 30 min after infarction
Procedure: (§2) The administration of the respective treatments was started 30 minutes after the MCAO procedure of the rats.
(§3) Seventy-two (72) SD rats received behavioral training after adaptive feeding period and before the operation to establish stroke models. The behavioral training included beam-walking, grip and rotarod tests. The experimental rats were then randomly divided into 6 groups according to the body weight, with 12 rats in each test group as described in Table 15.
(§4) The rats were fasted overnight before modeling and were anesthetized with isoflurane. Right middle cerebral artery occlusion (MCAO) was induced in each rat using the intraluminal filament technique to mimic focal cerebral ischemic stroke. After 2 hrs, reperfusion was allowed by removing the occlusion.
(§5) Administration of each treatment was performed 0.5 h after the infarction. The rats were scored by the Longa method at 24-hours post-procedure. The neurological function was evaluated at 24-hr and 48-hr after reperfusion, and was assessed by beam-walking, grip strength, and rotarod tests. At 48 h after reperfusion, the whole brain tissue of all rats was harvested to assess the cerebral infarct area by TTC staining, as well as to measure brain volume and brain water content, two indicators of acute cerebral edema.

[4] = test system: rat model of stroke induced by middle cerebral artery occlusion (MCAO); test: Grip strength (Example 3); type: in vivo, SD rats; details: 10 mg/kg (table label) i.v. Bid from 30 min after infarction
Procedure: as §2, §3, §4, §5

[5] = test system: rat model of stroke induced by middle cerebral artery occlusion (MCAO); test: Rotarod test (Example 3); type: in vivo, SD rats; details: 10 mg/kg (table label) i.v. Bid from 30 min after infarction
Procedure: as §2, §3, §4, §5

[6] = test system: rat model of stroke induced by middle cerebral artery occlusion (MCAO); test: Cerebral infarct volume by TTC staining (Example 3); type: in vivo, SD rats; details: 10 mg/kg (table label) i.v. Bid from 30 min after infarction, 48 h after reperfusion
Procedure: as §2, §3, §4, §5

[7] = test system: rat model of stroke induced by middle cerebral artery occlusion (MCAO); test: Brain water content (Example 3); type: in vivo, SD rats; details: 10 mg/kg (table label) i.v. Bid from 30 min after infarction; 48 h after reperfusion
Procedure: as §2, §3, §4, §5

[8] = test system: rat model of stroke induced by middle cerebral artery occlusion (MCAO); test: Brain volume (Example 3); type: in vivo, SD rats; details: 10 mg/kg (table label) i.v. Bid from 30 min after infarction; 48 h after reperfusion
Procedure: as §2, §3, §4, §5

[9] = test system: rat model of stroke induced by middle cerebral artery occlusion (MCAO); parameters: species or system SD rats; details: in vivo
Procedure: (§6) The first administration of the respective treatments was started 30 minutes (Day 1 of study) after the MCAO procedure of the rats. For the butylphthalide group, subsequent doses were administered every day after for 14 days. For the ALMB-0166 test groups, a second dose of the antibody was administered at Day 4 post-stroke (Day 4 of the study). Thirty-six (36) SD rats received behavioral training after adaptive feeding period and before the operation to establish stroke models. The behavioral training included beam-walking, grip and rotarod tests. The experimental rats were then randomly divided into 6 groups according to the body weight, with 6 rats in each test group as described in Table 15. The rats were fasted overnight before modeling and were anesthetized with isoflurane. […] The body weight of rats was recorded before the operation (Day 0 of study) and on Days 2, 4, 7, and 11 after the procedure. The rats were scored by the Longa method at Day 1 (24-hours) post-procedure. The neurological function was evaluated at Days 1, 2, 4, 7, and 14 after the procedure, and was assessed by beam-walking, grip strength, and rotarod tests. […] The total infarct volume was determined, and the infarct volume ratio was calculated by dividing the total infarct volume by the whole brain volume. […]

[10] = test system: rat model of stroke induced by middle cerebral artery occlusion (MCAO); test: Beam-walking test, dosing regimen (Example 4); type: in vivo, SD rats; details: 10 mg/kg (table label) i.v. Bid from 30 min after infarction
Procedure: (§7) The first administration of the respective treatments was started 30 minutes (Day 1 of study) after the MCAO procedure of the rats. For the butylphthalide group, subsequent doses were administered every day after for 14 days. For the ALMB-0166 test groups, a second dose of the antibody was administered at Day 4 post-stroke (Day 4 of the study). Thirty-six (36) SD rats received behavioral training after adaptive feeding period and before the operation to establish stroke models. The behavioral training included beam-walking, grip and rotarod tests. The experimental rats were then randomly divided into 6 groups according to the body weight, with 6 rats in each test group as described in Table 15. The rats were fasted overnight before modeling and were anesthetized with isoflurane. Right middle cerebral artery occlusion (MCAO) was induced in each rat using the intraluminal filament technique to mimic focal cerebral ischemic stroke. After 2 hrs, reperfusion was allowed by removing the occlusion. Administration of butylphthalide was performed 0.5 hrs after the infarction, and every day after the operation (14 days). Administration of ALMB-0166 and the vehicle treatment was performed at 0.5 hrs and at Day 4 after the operation. The body weight of rats was recorded before the operation (Day 0 of study) and on Days 2, 4, 7, and 11 after the procedure. The rats were scored by the Longa method at Day 1 (24-hours) post-procedure. The neurological function was evaluated at Days 1, 2, 4, 7, and 14 after the procedure, and was assessed by beam-walking, grip strength, and rotarod tests. At Day 14 after reperfusion, the whole brain tissue of all rats was harvested to assess the cerebral infarct area by TTC staining. The total infarct volume was determined, and the infarct volume ratio was calculated by dividing the total infarct volume by the whole brain volume. For calculating the infarct volume rate, the difference in infarct volume ratio between the model group and the corresponding administration group was divided by the infarct volume ratio of the model group.

[11] = test system: rat model of stroke induced by middle cerebral artery occlusion (MCAO); test: Grip strength, dosing regimen (Example 4); type: in vivo, SD rats; details: 10 mg/kg (table label) i.v. Bid from 30 min after infarction
Procedure: as §7

[12] = test system: rat model of stroke induced by middle cerebral artery occlusion (MCAO); test: Rotarod test, dosing regimen (Example 4); type: in vivo, SD rats; details: 10 mg/kg (table label) i.v. Bid from 30 min after infarction
Procedure: as §7

[13] = test system: rat model of stroke induced by middle cerebral artery occlusion (MCAO); test: Cerebral infarct volume by TTC staining, dosing regimen (Example 4); type: in vivo, SD rats; details: 10 mg/kg (table label) i.v. Bid from 30 min after infarction, 14-days post-operation
Procedure: as §6

[14] = 10 mg/kg i.v. once 0.5 hr after infarction
[15] = 10 mg/kg i.v. once 2 hr after infarction
[16] = 10 mg/kg i.v. once 6 hr after infarction

## CCCCC1OC(=O)c2ccccc21 (stereo not shown) [Butylphthalide]
[1]; [14]
  Brain water ratio: 81.23%
[1]; [15]
  Brain water content: 326.33 mg
  Brain water ratio: 81.25%
[1]; [16]
  Brain water content: 342.83 mg
  Brain water ratio: 82.36%
[2]; [14]
  Brain volume: 0.403 ± 0.04 mL
[2]; [15]
  Brain volume: 0.407 ± 0.02 mL
[2]; [16]
  Brain volume: 0.427 ± 0.03 mL
[3]; 24 h
  Beam-walking time: 38.91 s
[3]; 48 h
  Beam-walking time: 45.80 s
[4]; 24 h
  Grip Strength: 404.73 g
[4]; 48 h
  Grip Strength: 419.93 g
[5]; 24 h
  Rotarod test score, Time: 69.83 s
[5]; 48 h
  Rotarod test score, Time: 86.42 s
[6]
  Cerebral Infarction Volume: 22.41%
[6]; vs model
  Improvement rate of infarction: 30.84%
[7]
  Brain water content: 1282.00 mg
  Brain water ratio: 78.80%
[8]
  Brain volume: 1.597 ± 0.11 mL
[9]
  Body weight compared to model test group: No statistically significant difference
[10]; Day 0
  Beam-walking time: 23.13 s
[10]; Day 2
  Beam-walking time: 28.31 s
[10]; Day 4
  Beam-walking time: 43.23 s
[10]; Day 7
  Beam-walking time: 35.65 s
[10]; Day 14
  Beam-walking time: 16.01 s
[11]; Day 0
  Grip Strength: 504.65 g
[11]; Day 2
  Grip Strength: 565.99 g
[11]; Day 4
  Grip Strength: 520.36 g
[11]; Day 7
  Grip Strength: 523.26 g
[11]; Day 14
  Grip Strength: 585.23 g
[12]; Day 0
  Rotarod test score, Time: 124.5 s
[12]; Day 2
  Rotarod test score, Time: 126.8 s
[12]; Day 4
  Rotarod test score, Time: 122.2 s
[12]; Day 7
  Rotarod test score, Time: 130.7 s
[12]; Day 14
  Rotarod test score, Time: 157.3 s
[13]
  Cerebral Infarction Volume: 15.01%
[13]; vs model
  Improvement rate of infarction: 23.64%
